In article PMC10962542, “Inhibition of Aurora‐A/N‐Myc Protein–Protein Interaction Using Peptidomimetics: Understanding the Role of Peptide Cyclization” (Chembiochem, 2023):
Read-outs that look alike come from different tables or passages of the source. Where a SMILES comes first, the peptide text is derived from it. Bridges are numbered along the chain shown (N, C = ends).

What was measured:
[1] = biological target: T1, N‐Myc/Aurora‐A interaction (Aurora‐A122‐403‐C290A/C393A) (Homo sapiens, UniProt O14965, C290A/C393A); test: competition fluorescence anisotropy (FA) assay against fluorescein labelled N‐Myc61‐89; type: binding; also: equilibrated 2 h at room temperature
T1 construct: Aurora‐A 122‐403‐C290A/C393A protein was produced as described previously; made in house
T1 sequence (O14965 122-403 C290A/C393A): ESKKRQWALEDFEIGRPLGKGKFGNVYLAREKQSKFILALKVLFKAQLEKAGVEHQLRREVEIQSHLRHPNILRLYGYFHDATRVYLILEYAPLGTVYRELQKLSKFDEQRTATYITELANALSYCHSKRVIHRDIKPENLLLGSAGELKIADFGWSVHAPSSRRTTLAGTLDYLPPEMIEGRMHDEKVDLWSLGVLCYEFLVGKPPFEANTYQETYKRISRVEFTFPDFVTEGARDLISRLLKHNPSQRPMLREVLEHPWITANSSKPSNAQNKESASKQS
Experimental: Fluorescence anisotropy (FA) assays: All assays were performed using 384‐well plates (Greiner Bio‐one, UK). […] All samples were prepared in 25 mM Tris, 150 mM NaCl, 5 mM MgCl2, pH 7.5, and tested in triplicate using an EnVisionTM 2103 MultiLabel plate reader (Perkin Elmer; Waltham, MA, USA). The parameters were set as follows: Excitation wavelength=480 nm (30 nm bandwidth) and emission wavelength=535 nm (30 nm bandwidth). Measured data were processed and analysed as previously described.[31] Specifically, the perpendicular intensity (P) and parallel intensity (S) were subtracted by the control values and used for calculations of intensity and anisotropy using the following Equations 1, 2, 3, 4, and 5: (1) I=2PG+S (2) r=S-PG (3) Lb=r-rmin/λrmax-r+r-rmin (4) [drawing 1] (5) y=rmax+rmin-rmax/1+(x/x0)^p
For competition FA assays, the average anisotropy and the average standard deviation of the values derived from equation (2) were calculated and fit to a sigmoidal logistic model (equation (5)) using Origin 2021. […] Results are reported as IC50±SD, with data points representing the mean of three replicates and error bars indicating the corresponding SD. Where applicable, ΔΔG was determined as follows: ΔΔG=−RT ln (ΔIC50).

[2] = circular dichroism (CD) spectroscopy; type: physicochemical; details: 150 mM NaCl, 5 mM MgCl2, pH 7.5, 5 °C, n=2, free‐thiol (red) samples with 5 mol equivalents TCEP; for MRE222 (mean residue ellipticity at 222 nm): 25 mM Tris, mean ± SD, SD; for % Helicity (estimated): from MRE222 by equation 7, 25 mM Tris
Experimental: Circular dichroism (CD): All samples were prepared in Tris buffer (25 mM Tris, 150 mM NaCl, 5 mM MgCl2, pH 7.5) with the exception of free sulfhydryl peptides, to which Tris(2‐carboxyethyl)phosphine (TCEP; 5 mol eq. relative to the peptide) was added. CD spectra were recorded using an APP Chirascan CD spectropolarimeter and 1 mm pathlength quartz cuvettes. Sample concentrations were typically 30–120 μM, as determined by UV−V absorption based on a tryptophan extinction coefficient of 5600 M^−1 cm^−1 and, for mal‐constrained variants, a maleimide coefficient of 1700 M^−1 cm^−1.[16, 32] […] Spectra were recorded in duplicate at 5 °C, over wavelengths ranging from 290 to 180 nm, with data collected every 1 nm (1 nm s^−1). A background spectrum for CD buffer alone was also recorded and background ellipticity values were subtracted from raw sample ellipticity values (θ) when calculating mean residue ellipticities (MREs) using Equation 6: (6) MRE=(θλ-θ0)xMw/nxlxc
Where [θ]λ is the observed ellipticity at a given wavelength λ in mdeg, [θ]0 is the ellipticity observed for the buffer, Mw =molar weight of the peptide in g mol^−1, n=number of residues; c=sample concentration (mg mL^−1); l=pathlength of the cuvette in mm. Estimates of peptide % helicity were made using Equation 7, [33] (7) %helicity=(MRE222-MREcoil)x100/-425001-3/n
where MRE222 is the MRE value at 222 nm, MREcoil=640‐45T (with T in °C)=415 deg cm^2 dmol^−1 res^−1 at 5 °C, and n is the number of backbone amide bonds including the N‐terminal acetyl.

Row | SMILES | IC50 [1] | MRE222 (mean residue ellipticity at 222 nm) [2] | % Helicity (estimated) [2] | IC50 ([1]; SD)
1 | CSCC[C@@H]1NC(=O)[C@H](CCC(=O)O)NC(=O)[C@H]([C@@H](C)O)NC(=O)[C@@H](NC(=O)[C@H](Cc2c[nH]c3ccccc23)NC(=O)[C@H](CO)NC(=O)[C@@H]2CCCN2C(=O)[C@@H]2CCCN2C(=O)[C@H](CCC(=O)O)NC(=O)[C@H](CO)NC(=O)[C@H](CO)NC(=O)[C@H](Cc2c[nH]cn2)NC(=O)[C@H](CCC(=O)O)NC(=O)[C@H](C)NC(=O)[C@H](Cc2ccccc2)NC(=O)CNC(=O)[C@H](CCCNC(=N)N)NC(=O)[C@H](CO)NC(=O)[C@@H]2CCCN2C(=O)[C@H](CO)NC(=O)[C@H](CC(C)C)NC(C)=O)CSSC[C@@H](C(=O)N[C@@H](CC(C)C)C(=O)N[C@@H](CCC(=O)O)C(=O)N[C@@H](CC(N)=O)C(=O)N[C@@H](CCC(=O)O)C(=O)N[C@@H](CC(C)C)C(=O)N[C@@H](Cc2c[nH]c3ccccc23)C(=O)NCC(N)=O)NC1=O [N-Myc 61-89 V78C/L82C ox] (Ac-LSPSRGFAEHSSEPPSWCTEMCLENELWG-NH2; disulfide 18-22) | ≥ 500 µM | -2823 ± 48 deg cm^−1 dmol^−1 res^−1 | 8 ± 1% | –
2 | CSCC[C@H](NC(=O)[C@H](CCC(=O)O)NC(=O)[C@@H](NC(=O)[C@@H](NC(=O)[C@H](Cc1c[nH]c2ccccc12)NC(=O)[C@H](CO)NC(=O)[C@@H]1CCCN1C(=O)[C@@H]1CCCN1C(=O)[C@H](CCC(=O)O)NC(=O)[C@H](CO)NC(=O)[C@H](CO)NC(=O)[C@H](Cc1c[nH]cn1)NC(=O)[C@H](CCC(=O)O)NC(=O)[C@H](C)NC(=O)[C@H](Cc1ccccc1)NC(=O)CNC(=O)[C@H](CCCNC(=N)N)NC(=O)[C@H](CO)NC(=O)[C@@H]1CCCN1C(=O)[C@H](CO)NC(=O)[C@H](CC(C)C)NC(C)=O)C(C)C)[C@@H](C)O)C(=O)N[C@@H](CC(C)C)C(=O)N[C@H]1CSSC[C@@H](C(=O)N[C@@H](Cc2c[nH]c3ccccc23)C(=O)NCC(N)=O)NC(=O)[C@H](CCC(=O)O)NC(=O)[C@H](CC(N)=O)NC(=O)[C@H](CCC(=O)O)NC1=O [N-Myc 61-89L83C/L87C ox] (Ac-LSPSRGFAEHSSEPPSWVTEMLCENECWG-NH2; disulfide 23-27) | – | -2223 ± 37 deg cm^−1 dmol^−1 res^−1 | 7 ± 1% | 103 ± 11 µM
3 | CC(=O)N[C@@H](CC(C)C)C(=O)N[C@@H](CO)C(=O)N1CCC[C@H]1C(=O)N[C@@H](CO)C(=O)N[C@@H](CCCNC(=N)N)C(=O)NCC(=O)N[C@@H](Cc1ccccc1)C(=O)N[C@@H](C)C(=O)N[C@@H](CCC(=O)O)C(=O)N[C@@H](Cc1c[nH]cn1)C(=O)N[C@@H](CO)C(=O)N[C@@H](CO)C(=O)N[C@@H](CCC(=O)O)C(=O)N1CCC[C@H]1C(=O)N1CCC[C@H]1C(=O)N[C@@H](CO)C(=O)N[C@@H](Cc1c[nH]c2ccccc12)C(=O)N[C@H](C(=O)N[C@H](C(=O)N[C@@H](CCC(=O)O)C(=O)N[C@@H](CS)C(=O)N[C@@H](CC(C)C)C(=O)N[C@@H](CC(C)C)C(=O)N[C@@H](CCC(=O)O)C(=O)N[C@@H](CS)C(=O)N[C@@H](CCC(=O)O)C(=O)N[C@@H](CC(C)C)C(=O)N[C@@H](Cc1c[nH]c2ccccc12)C(=O)NCC(N)=O)[C@@H](C)O)C(C)C [N-Myc 61-89M81C/N85C red] (Ac-LSPSRGFAEHSSEPPSWVTECLLECELWG-NH2) | – | -2198 ± 93 deg cm^−1 dmol^−1 res^−1 | 7 ± 1% | 164 ± 6 µM

The next lines start with the values.

Row | IC50 [1] | MRE222 (mean residue ellipticity at 222 nm) [2] | % Helicity (estimated) [2] | IC50 ([1]; SD) | SMILES
4 | – | -2562 ± 106 deg cm^−1 dmol^−1 res^−1 | 8 ± 1% | 111 ± 5 µM | CSCC[C@H](NC(=O)[C@H](CS)NC(=O)[C@@H](NC(=O)[C@@H](NC(=O)[C@H](Cc1c[nH]c2ccccc12)NC(=O)[C@H](CO)NC(=O)[C@@H]1CCCN1C(=O)[C@@H]1CCCN1C(=O)[C@H](CCC(=O)O)NC(=O)[C@H](CO)NC(=O)[C@H](CO)NC(=O)[C@H](Cc1c[nH]cn1)NC(=O)[C@H](CCC(=O)O)NC(=O)[C@H](C)NC(=O)[C@H](Cc1ccccc1)NC(=O)CNC(=O)[C@H](CCCNC(=N)N)NC(=O)[C@H](CO)NC(=O)[C@@H]1CCCN1C(=O)[C@H](CO)NC(=O)[C@H](CC(C)C)NC(C)=O)C(C)C)[C@@H](C)O)C(=O)N[C@@H](CC(C)C)C(=O)N[C@@H](CC(C)C)C(=O)N[C@@H](CS)C(=O)N[C@@H](CC(N)=O)C(=O)N[C@@H](CCC(=O)O)C(=O)N[C@@H](CC(C)C)C(=O)N[C@@H](Cc1c[nH]c2ccccc12)C(=O)NCC(N)=O [N-Myc 61-89E80C/E84C red] (Ac-LSPSRGFAEHSSEPPSWVTCMLLCNELWG-NH2)
5 | – | -2348 ± 49 deg cm^−1 dmol^−1 res^−1 | 7 ± 1% | 120 ± 14 µM | CSCC[C@H](NC(=O)[C@H](CCC(=O)O)NC(=O)[C@@H](NC(=O)[C@@H](NC(=O)[C@H](Cc1c[nH]c2ccccc12)NC(=O)[C@H](CO)NC(=O)[C@@H]1CCCN1C(=O)[C@@H]1CCCN1C(=O)[C@H](CCC(=O)O)NC(=O)[C@H](CO)NC(=O)[C@H](CO)NC(=O)[C@H](Cc1c[nH]cn1)NC(=O)[C@H](CCC(=O)O)NC(=O)[C@H](C)NC(=O)[C@H](Cc1ccccc1)NC(=O)CNC(=O)[C@H](CCCNC(=N)N)NC(=O)[C@H](CO)NC(=O)[C@@H]1CCCN1C(=O)[C@H](CO)NC(=O)[C@H](CC(C)C)NC(C)=O)C(C)C)[C@@H](C)O)C(=O)N[C@@H](CS)C(=O)N[C@@H](CC(C)C)C(=O)N[C@@H](CCC(=O)O)C(=O)N[C@@H](CC(N)=O)C(=O)N[C@@H](CS)C(=O)N[C@@H](CC(C)C)C(=O)N[C@@H](Cc1c[nH]c2ccccc12)C(=O)NCC(N)=O [N-Myc 61-89L82C/E86C red] (Ac-LSPSRGFAEHSSEPPSWVTEMCLENCLWG-NH2)
6 | – | -1746 ± 74 deg cm^−1 dmol^−1 res^−1 | 6 ± 1% | 181 ± 9 µM | CSCC[C@H](NC(=O)[C@H](CCC(=O)O)NC(=O)[C@@H](NC(=O)[C@@H](NC(=O)[C@H](Cc1c[nH]c2ccccc12)NC(=O)[C@H](CO)NC(=O)[C@@H]1CCCN1C(=O)[C@@H]1CCCN1C(=O)[C@H](CCC(=O)O)NC(=O)[C@H](CO)NC(=O)[C@H](CO)NC(=O)[C@H](Cc1c[nH]cn1)NC(=O)[C@H](CCC(=O)O)NC(=O)[C@H](C)NC(=O)[C@H](Cc1ccccc1)NC(=O)CNC(=O)[C@H](CCCNC(=N)N)NC(=O)[C@H](CO)NC(=O)[C@@H]1CCCN1C(=O)[C@H](CO)NC(=O)[C@H](CC(C)C)NC(C)=O)C(C)C)[C@@H](C)O)C(=O)N[C@@H](CC(C)C)C(=O)N[C@@H](CS)C(=O)N[C@@H](CCC(=O)O)C(=O)N[C@@H](CC(N)=O)C(=O)N[C@@H](CCC(=O)O)C(=O)N[C@@H](CS)C(=O)N[C@@H](Cc1c[nH]c2ccccc12)C(=O)NCC(N)=O [N-Myc 61-89L83C/L87C red] (Ac-LSPSRGFAEHSSEPPSWVTEMLCENECWG-NH2)
